What was measured:
[1] = test system: morningglory; experiment: Test A postemergence; format: in vivo, Ipomoea spp.
Text: (§1) Seeds of plant species selected from barnyardgrass (Echinochloa crus-galli), kochia (Kochia scoparia), common ragweed (Ambrosia elation), Italian ryegrass (Lolium multiflorum), crabgrass, large (large crabgrass, Digitaria sanguinalis), foxtail, giant (giant foxtail, Setaria faberii), morningglory (Ipomoea spp.), pigweed (redroot pigweed, Amaranthus retroflexus), velvetleaf (Abutilon theophrasti), wheat (Triticum aestivum), and corn (Zea mays) were planted into a blend of loam soil and sand and treated preemergence with a directed soil spray using test chemicals formulated in a non-phytotoxic solvent mixture which included a surfactant.
(§2) At the same time, plants selected from these crop and weed species and also blackgrass (Alopecurus myosuroides), and galium (catchweed bedstraw, Galium aparine) were planted in pots containing the same blend of loam soil and sand and treated with postemergence applications of test chemicals formulated in the same manner. Plants ranged in height from 2 to 10 cm and were in the one- to two-leaf stage for the postemergence treatment. Treated plants and untreated controls were maintained in a greenhouse for approximately 10 days, after which time all treated plants were compared to untreated controls and visually evaluated for injury. Plant response ratings, summarized in Table A, are based on a 0 to 100 scale where 0 is no effect and 100 is complete control. A dash (-) response means no test result.

[2] = test system: morningglory; experiment: Test A preemergence; format: in vivo, Ipomoea spp.; conditions: 0 to 100 scale
Text: as §1, §2

[3] = test system: velvetleaf; experiment: Test A postemergence; format: in vivo, Abutilon theophrasti
Text: as §1, §2

[4] = test system: barnyardgrass; experiment: Test A preemergence; format: in vivo, Echinochloa crus-galli; conditions: 0 to 100 scale
Text: as §1, §2

[5] = test system: barnyardgrass; experiment: Test A postemergence; format: in vivo, Echinochloa crus-galli; conditions: Postemergence
Text: as §1, §2

[6] = test system: velvetleaf; experiment: Test A preemergence; format: in vivo, Abutilon theophrasti; conditions: 0 to 100 scale
Text: as §1, §2

[7] = test system: crabgrass, large; experiment: Test A preemergence; format: in vivo, Digitaria sanguinalis; conditions: 0 to 100 scale
Text: as §1, §2

[8] = test system: crabgrass, large; experiment: Test A postemergence; format: in vivo, Digitaria sanguinalis
Text: as §1, §2

[9] = test system: wheat; experiment: Test A preemergence; format: in vivo, Triticum aestivum; conditions: preemergence, 125 g ai/ha; visual injury, 0 to 100 scale, approx. 10 days
Text: as §1, §2

[10] = test system: pigweed; experiment: Test A postemergence; format: in vivo, Amaranthus retroflexus
Text: as §1, §2

[11] = test system: pigweed; experiment: Test A preemergence; format: in vivo, Amaranthus retroflexus; conditions: 0 to 100 scale
Text: as §1, §2

[12] = test system: corn; experiment: Test A preemergence; format: in vivo, Zea mays; conditions: 0 to 100 scale
Text: as §1, §2

[13] = test system: foxtail, giant; experiment: Test A preemergence; format: in vivo, Setaria faberii; conditions: 0 to 100 scale
Text: as §1, §2

[14] = test system: foxtail, giant; experiment: Test A postemergence; format: in vivo, Setaria faberii
Text: as §1, §2

[15] = test system: wheat; experiment: Test A postemergence; format: in vivo, Triticum aestivum
Text: as §1, §2

[16] = test system: corn; experiment: Test A postemergence; format: in vivo, Zea mays
Text: as §1, §2

[17] = Postemergence, 1000 g ai/ha, visual rating after approx. 10 days, 0 to 100 scale (0 no effect, 100 complete control)
[18] = Preemergence, 2000 g ai/ha, 0 no effect, 100 complete control
[19] = 1000 g ai/ha, visual rating after approx. 10 days, 0 to 100 scale (0 no effect, 100 complete control)
[20] = Postemergence, 500 g ai/ha, visual rating after approx. 10 days, 0 to 100 scale (0 no effect, 100 complete control)
[21] = postemergence, 125 g ai/ha, about 10 days, visual rating on 0 to 100 scale (0 no effect, 100 complete control)
[22] = Preemergence, 500 g ai/ha, 0 no effect, 100 complete control
[23] = preemergence, 125 g ai/ha, visual injury, approx. 10 days
[24] = 125 g ai/ha, 0 to 100 scale, 0 no effect, 100 complete control
[25] = 500 g ai/ha, visual rating after approx. 10 days, 0 to 100 scale (0 no effect, 100 complete control)

Compound	Morningglory plant response rating [1, 17]	Morningglory plant response rating [2, 18]	Velvetleaf plant response rating [3, 17]	Barnyardgrass plant response rating [4, 18]	Barnyardgrass plant response rating [5, 19]	Velvetleaf plant response rating [6, 18]	Crabgrass, Large plant response rating [7, 18]	Crabgrass, Large plant response rating [8, 17]	Morningglory plant response rating [1, 20]	Morningglory plant response rating [1, 21]	Morningglory plant response rating [2, 22]	Morningglory plant response rating [2, 23]	Velvetleaf plant response rating [3, 20]	Velvetleaf plant response rating [3, 21]	Wheat plant response rating [9]	Barnyardgrass plant response rating [4, 22]	Barnyardgrass plant response rating [4, 23]	Pigweed plant response rating [10, 20]	Pigweed plant response rating [10, 21]	Pigweed plant response rating [11, 22]	further results
Cc1cc(C(=O)NC(C)(C)C)nn1Cc1cccc(C(F)(F)F)c1 [Compound 1]	20	0	30	10	30	0	10	30													
Cc1cc(C(=O)NC2CC2)nn1Cc1cccc(C(F)(F)F)c1 [Compound 2]	80	100	70	90	50	100	100	50													
Cc1cc(C(=O)NCC(F)(F)C(F)(F)F)nn1Cc1cccc(OC(F)(F)F)c1 [Compound 6]									60	30	0	0	40	10	0	0	0	60	50	50	Pigweed plant response rating [11, 23]: 30; Corn plant response rating [12, 22]: 0; Corn plant response rating [12, 23]: 0; Barnyardgrass plant response rating [5, 24]: 0; Barnyardgrass plant response rating [5, 25]: 10; Velvetleaf plant response rating [6, 22]: 0; Velvetleaf plant response rating [6, 23]: 0; Crabgrass, Large plant response rating [7, 22]: 20; Crabgrass, Large plant response rating [7, 23]: 0; Crabgrass, Large plant response rating [8, 20]: 30; Crabgrass, Large plant response rating [8, 21]: 10; Foxtail, Giant plant response rating [13, 22]: 20; Foxtail, Giant plant response rating [13, 23]: 0; Foxtail, Giant plant response rating [14, 20]: 20; Foxtail, Giant plant response rating [14, 21]: 10; Wheat plant response rating [15, 20]: 0; Wheat plant response rating [15, 21]: 0; Corn plant response rating [16, 20]: 0; Corn plant response rating [16, 21]: 0
Cc1cc(C(=O)NCC(F)(F)F)nn1Cc1cccc(C(F)(F)F)c1 [Compound 7]									100	40	40	0	40	30	0	40	0	50	30	90	Pigweed plant response rating [11, 23]: 0; Corn plant response rating [12, 22]: 10; Corn plant response rating [12, 23]: 0; Barnyardgrass plant response rating [5, 24]: 0; Barnyardgrass plant response rating [5, 25]: 30; Velvetleaf plant response rating [6, 22]: 10; Velvetleaf plant response rating [6, 23]: 0; Crabgrass, Large plant response rating [7, 22]: 90; Crabgrass, Large plant response rating [8, 20]: 40; Crabgrass, Large plant response rating [8, 21]: 10; Foxtail, Giant plant response rating [13, 22]: 70; Foxtail, Giant plant response rating [13, 23]: 10; Foxtail, Giant plant response rating [14, 20]: 30; Foxtail, Giant plant response rating [14, 21]: 0; Wheat plant response rating [15, 20]: 20; Wheat plant response rating [15, 21]: 0; Corn plant response rating [16, 20]: 30; Corn plant response rating [16, 21]: 10
